From PubChem BioAssay (NCI)
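A five-concentration, 48-hour dose response in 96-well plates underlies each endpoint, interpolated linearly between surrounding concentrations. GI50 marks 50% less growth. The concentration for full growth arrest is given as TGI.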

Tests used:
Experiment in all cases: NCI tumour cell line growth inhibition, 48 h
HT29 colon = test system: HT29 colon
TK-10 renal = test system: TK-10 renal
CAKI-1 renal = test system: CAKI-1 renal
CCRF-CEM leukemia = test system: CCRF-CEM leukemia
NCI-H23 lung = test system: NCI-H23 lung
HCT-15 colon = test system: HCT-15 colon
SF-295 CNS = test system: SF-295 CNS
MDA-MB-435 = test system: MDA-MB-435
ACHN renal = test system: ACHN renal
NCI/ADR-RES ovarian = test system: NCI/ADR-RES ovarian
HL-60(TB) leukemia = test system: HL-60(TB) leukemia
SK-MEL-28 melanoma = test system: SK-MEL-28 melanoma
NCI-H226 lung = test system: NCI-H226 lung
HS 578T breast = test system: HS 578T breast
UACC-62 melanoma = test system: UACC-62 melanoma
NCI-H522 lung = test system: NCI-H522 lung
RPMI-8226 leukemia = test system: RPMI-8226 leukemia
SNB-75 CNS = test system: SNB-75 CNS
OVCAR-5 ovarian = test system: OVCAR-5 ovarian
M14 melanoma = test system: M14 melanoma
HCC-2998 colon = test system: HCC-2998 colon
MCF7 breast = test system: MCF7 breast
OVCAR-3 ovarian = test system: OVCAR-3 ovarian
COLO 205 colon = test system: COLO 205 colon
786-0 renal = test system: 786-0 renal
SF-539 CNS = test system: SF-539 CNS
SK-MEL-2 melanoma = test system: SK-MEL-2 melanoma
NCI-H460 lung = test system: NCI-H460 lung
OVCAR-4 ovarian = test system: OVCAR-4 ovarian
SF-268 CNS = test system: SF-268 CNS
KM12 colon = test system: KM12 colon
MALME-3M melanoma = test system: MALME-3M melanoma
SNB-19 CNS = test system: SNB-19 CNS
MDA-MB-231 breast = test system: MDA-MB-231 breast
SK-OV-3 ovarian = test system: SK-OV-3 ovarian
SN12C renal = test system: SN12C renal
SW-620 colon = test system: SW-620 colon
DU-145 prostate = test system: DU-145 prostate
MOLT-4 leukemia = test system: MOLT-4 leukemia
RXF 393 renal = test system: RXF 393 renal
HOP-62 NSCLC = test system: HOP-62 NSCLC
LOX IMVI melanoma = test system: LOX IMVI melanoma
IGROV1 ovarian = test system: IGROV1 ovarian
BT-549 breast = test system: BT-549 breast
K-562 leukemia = test system: K-562 leukemia
SR leukemia = test system: SR leukemia
UACC-257 melanoma = test system: UACC-257 melanoma
OVCAR-8 ovarian = test system: OVCAR-8 ovarian
EKVX NSCLC = test system: EKVX NSCLC
PC-3 prostate = test system: PC-3 prostate
T-47D breast = test system: T-47D breast
U251 CNS = test system: U251 CNS
HCT-116 colon = test system: HCT-116 colon
A549 NSCLC = test system: A549 NSCLC
UO-31 renal = test system: UO-31 renal
A498 renal = test system: A498 renal
SK-MEL-5 melanoma = test system: SK-MEL-5 melanoma

With `O=C(CNC(=O)c1ccccc1)Oc1c(Cl)c(Cl)c(Cl)c(Cl)c1Cl` the TGI (HT29 colon) was > 100 µM, the TGI (TK-10 renal) was 94.1 µM and the TGI (CAKI-1 renal) was 54.9 µM. The TGI (CCRF-CEM leukemia) was > 100 µM, the TGI (NCI-H23 lung) was > 100 µM and the TGI (HCT-15 colon) was > 100 µM. The TGI (SF-295 CNS) was 79.9 µM, the TGI (MDA-MB-435) was 94.1 µM and the TGI (ACHN renal) was 65.1 µM. The TGI (NCI/ADR-RES ovarian) was 82.5 µM, the TGI (HL-60(TB) leukemia) was 77.5 µM and the TGI (SK-MEL-28 melanoma) was > 100 µM. It also gave a TGI (NCI-H226 lung) of 88.6 µM, a TGI (HS 578T breast) of 67.6 µM and a TGI (UACC-62 melanoma) of 53.8 µM. The TGI (NCI-H522 lung) was 83.8 µM, the TGI (RPMI-8226 leukemia) was 78.3 µM and the TGI (SNB-75 CNS) was > 100 µM. The TGI (OVCAR-5 ovarian) was > 100 µM, the TGI (M14 melanoma) was > 100 µM and the TGI (HCC-2998 colon) was 60.6 µM. For the same compound, the TGI (MCF7 breast) was > 100 µM, the TGI (OVCAR-3 ovarian) was 53.3 µM and the TGI (COLO 205 colon) was > 100 µM. The TGI (786-0 renal) was > 100 µM, the TGI (SF-539 CNS) was 95.1 µM and the TGI (SK-MEL-2 melanoma) was 94.1 µM. For the same compound, the TGI (NCI-H460 lung) was > 100 µM, the TGI (OVCAR-4 ovarian) was > 100 µM and the TGI (SF-268 CNS) was > 100 µM. The TGI (KM12 colon) was 45.6 µM, the TGI (MALME-3M melanoma) was 57.1 µM and the TGI (SNB-19 CNS) was > 100 µM. For the same compound, the TGI (MDA-MB-231 breast) was 66.1 µM, the TGI (SK-OV-3 ovarian) was > 100 µM and the TGI (SN12C renal) was > 100 µM. The TGI (SW-620 colon) was 67.1 µM, the TGI (DU-145 prostate) was 49.9 µM and the TGI (MOLT-4 leukemia) was > 100 µM. The TGI (RXF 393 renal) was > 100 µM, the TGI (HOP-62 NSCLC) was > 100 µM and the TGI (LOX IMVI melanoma) was > 100 µM. For the same compound, the TGI (IGROV1 ovarian) was 63.5 µM, the TGI (BT-549 breast) was 58.1 µM and the TGI (K-562 leukemia) was > 100 µM. The TGI (SR leukemia) was > 100 µM, the TGI (UACC-257 melanoma) was 54.9 µM and the TGI (OVCAR-8 ovarian) was 64 µM. For the same compound, the TGI (EKVX NSCLC) was 48 µM, the TGI (PC-3 prostate) was 61.4 µM and the TGI (T-47D breast) was > 100 µM. The TGI (U251 CNS) was > 100 µM, the TGI (HCT-116 colon) was > 100 µM and the TGI (A549 NSCLC) was > 100 µM. For the same compound, the TGI (UO-31 renal) was 45.2 µM.
`Cc1cc2c(cc1C)[n+](=O)c(C(=O)C(C)(C)C)c(C(F)(F)F)n2[O-]` was tested, and the GI50 (HT29 colon) was 31.7 µM, the TGI (HT29 colon) was > 100 µM and the GI50 (TK-10 renal) was 75.4 µM. The TGI (TK-10 renal) was > 100 µM, the GI50 (CAKI-1 renal) was 21.3 µM and the TGI (CAKI-1 renal) was 55 µM. For the same compound, the GI50 (CCRF-CEM leukemia) was 12.3 µM, the TGI (CCRF-CEM leukemia) was 49.3 µM and the GI50 (NCI-H23 lung) was 16.1 µM. It also gave a TGI (NCI-H23 lung) of 47.6 µM, a GI50 (HCT-15 colon) of 13.7 µM and a TGI (HCT-15 colon) of 55.6 µM. For the same compound, the GI50 (SF-295 CNS) was 28.8 µM, the TGI (SF-295 CNS) was 85.4 µM and the GI50 (MDA-MB-435) was 28.2 µM. For the same compound, the TGI (MDA-MB-435) was 78.9 µM, the GI50 (ACHN renal) was 16.1 µM and the TGI (ACHN renal) was 34.5 µM. The GI50 (NCI/ADR-RES ovarian) was 9.08 µM, the TGI (NCI/ADR-RES ovarian) was 27.5 µM and the GI50 (HL-60(TB) leukemia) was 5.9 µM. The TGI (HL-60(TB) leukemia) was 24.5 µM, the GI50 (SK-MEL-28 melanoma) was > 100 µM and the TGI (SK-MEL-28 melanoma) was > 100 µM. The GI50 (NCI-H226 lung) was 16.2 µM, the TGI (NCI-H226 lung) was 70.6 µM and the GI50 (HS 578T breast) was 14.4 µM. For the same compound, the TGI (HS 578T breast) was 58.6 µM, the GI50 (UACC-62 melanoma) was 17 µM and the TGI (UACC-62 melanoma) was 71.5 µM. For the same compound, the GI50 (NCI-H522 lung) was 18.9 µM, the TGI (NCI-H522 lung) was 49.6 µM and the GI50 (RPMI-8226 leukemia) was 3.57 µM. The TGI (RPMI-8226 leukemia) was 15.4 µM, the GI50 (SNB-75 CNS) was 45.9 µM and the TGI (SNB-75 CNS) was > 100 µM. It also gave a GI50 (OVCAR-5 ovarian) of 8.51 µM, a TGI (OVCAR-5 ovarian) of 54.2 µM and a GI50 (M14 melanoma) of 27.5 µM. The TGI (M14 melanoma) was 80.8 µM, the GI50 (MCF7 breast) was 20.8 µM and the TGI (MCF7 breast) was 77.7 µM. For the same compound, the GI50 (OVCAR-3 ovarian) was 21.2 µM, the TGI (OVCAR-3 ovarian) was 50.1 µM and the GI50 (COLO 205 colon) was 54.4 µM. The TGI (COLO 205 colon) was > 100 µM, the GI50 (786-0 renal) was 29.4 µM and the TGI (786-0 renal) was > 100 µM. For the same compound, the GI50 (SF-539 CNS) was 16.6 µM, the TGI (SF-539 CNS) was 41.9 µM and the GI50 (SK-MEL-2 melanoma) was 25.6 µM. It also gave a TGI (SK-MEL-2 melanoma) of 58.7 µM, a GI50 (NCI-H460 lung) of 13.7 µM and a TGI (NCI-H460 lung) of 34 µM. For the same compound, the GI50 (OVCAR-4 ovarian) was 26.7 µM, the TGI (OVCAR-4 ovarian) was > 100 µM and the GI50 (SF-268 CNS) was 16.6 µM. It also gave a TGI (SF-268 CNS) of 82.5 µM, a GI50 (KM12 colon) of 25 µM and a TGI (KM12 colon) of 62.1 µM. The GI50 (MALME-3M melanoma) was 24.2 µM, the TGI (MALME-3M melanoma) was 68.1 µM and the GI50 (SNB-19 CNS) was 56.2 µM. For the same compound, the TGI (SNB-19 CNS) was > 100 µM, the GI50 (MDA-MB-231 breast) was 13.6 µM and the TGI (MDA-MB-231 breast) was 37.5 µM. The GI50 (SK-OV-3 ovarian) was 50 µM, the TGI (SK-OV-3 ovarian) was > 100 µM and the GI50 (SN12C renal) was 14.1 µM. The TGI (SN12C renal) was 62.7 µM, the GI50 (SW-620 colon) was 28.4 µM and the TGI (SW-620 colon) was > 100 µM. It also gave a GI50 (DU-145 prostate) of 5.45 µM, a TGI (DU-145 prostate) of 19.5 µM and a GI50 (MOLT-4 leukemia) of 8.2 µM. It also gave a TGI (MOLT-4 leukemia) of 29.3 µM, a GI50 (HOP-62 NSCLC) of 17 µM and a TGI (HOP-62 NSCLC) of 59.1 µM. It also gave a GI50 (LOX IMVI melanoma) of 9.53 µM, a TGI (LOX IMVI melanoma) of 25.7 µM and a GI50 (IGROV1 ovarian) of 5.17 µM. For the same compound, the TGI (IGROV1 ovarian) was 20.3 µM, the GI50 (BT-549 breast) was 12 µM and the TGI (BT-549 breast) was 50.5 µM. It also gave a GI50 (K-562 leukemia) of 4.3 µM, a TGI (K-562 leukemia) of 19.9 µM and a GI50 (SR leukemia) of 11.5 µM. The TGI (SR leukemia) was 33.2 µM, the GI50 (UACC-257 melanoma) was 7.71 µM and the TGI (UACC-257 melanoma) was 41.2 µM. For the same compound, the GI50 (OVCAR-8 ovarian) was 3.62 µM, the TGI (OVCAR-8 ovarian) was 15.5 µM and the GI50 (EKVX NSCLC) was 2.91 µM. The TGI (EKVX NSCLC) was 9.95 µM, the GI50 (PC-3 prostate) was 6.24 µM and the TGI (PC-3 prostate) was 39.2 µM. The GI50 (T-47D breast) was 32.3 µM, the TGI (T-47D breast) was > 100 µM and the GI50 (U251 CNS) was 20.8 µM. The TGI (U251 CNS) was > 100 µM, the GI50 (HCT-116 colon) was 10.6 µM and the TGI (HCT-116 colon) was > 100 µM. For the same compound, the GI50 (A498 renal) was 18.1 µM, the TGI (A498 renal) was 44.1 µM and the GI50 (A549 NSCLC) was 8.61 µM. For the same compound, the TGI (A549 NSCLC) was 26.2 µM, the GI50 (SK-MEL-5 melanoma) was 12.5 µM and the TGI (SK-MEL-5 melanoma) was 26.9 µM. It also gave a GI50 (UO-31 renal) of 17.4 µM and a TGI (UO-31 renal) of 33.2 µM.
